{"source": "patent US10851069B2", "about": "“Compositions of crystallized hydrophobic compounds and methods of making and using same” (Massachusetts Institute of Technology, priority 2016, dated 2020)", "key": {"C57BL/6 mice": {"test_system": "C57BL/6 mice", "assay": "PDMS discs loaded with GW2580 crystals implanted SC and IP", "assay_type": "in vivo", "description": "Another study was done by mixing GW2580 crystals at different ratios of 1, 5 and 10% w/w with PDMS to form disks of 2.2 mm thickness and 5 mm diameter prepared at ratio 9:1 (PDMS: curing reagent) and were solidified overnight at 45° C. These disks were implanted into SC and IP spaces in C57BL/6 mice and then retrieved and analyzed at 2 weeks, 4 weeks, and 3 months post implantation in C57BL/6 mice (1 disc/site/mouse). […] Retrieved materials where fixed overnight using 4% paraformaldehyde at 4° C. After fixation, alginate sphere or retrieved tissue samples were washed using 70% alcohol. The materials where then mixed with 4 degrees calcium-cooled Histogel (VWR, CA #60872-486). After the molds hardened, the blocks were processed for paraffin embedding, sectioning and staining according to standard histological methods. Single-cell suspensions of freshly excised tissues were prepared using a gentle MACS Dissociator (Miltenyi Biotec, Auburn, Calif.) according to the manufacturer's protocol. Single-cell suspensions were prepared in a passive PEB dissociation buffer (1×PBS, pH 7.2, 0.5% BSA, and 2 mM EDTA) and suspensions were passed through 70 μm filters (Cat. #22363548, Fisher Scientific, Pittsburgh, Pa.). This process removed the majority of cells adhered to the surface (>90%). All tissue and material sample-derived, single-cell populations were then subjected to red blood cell lysis with 5 ml of 1×RBC lysis buffer (Cat. #00-4333, eBioscience, San Diego, Calif., USA) for 5 min at 4° C. The reaction was terminated by the addition of 20 ml of sterile 1×PBS. The cells remaining were centrifuged at 300-400 g at 4° C. and resuspended in a minimal volume (˜50 μl) of eBioscience Staining Buffer (cat. #00-4222) for antibody incubation. All samples were then co-stained in the dark for 25 min at 4° C. with two of the fluorescently tagged monoclonal antibodies specific for the cell markers CD68 (1 μl (0.5 μg) per sample; CD68-Alexa647, Clone FA-11, Cat. #11-5931, BioLegend), Ly-6G (Gr-1) (1 μl (0.5 μg) per sample; Ly-6G-Alexa-647, Clone RB6-8C5, Cat. #108418, BioLegend), CD11b (1 μl (0.2 μg) per sample; or CD11b-Alexa-488, Clone M1/70, Cat. #101217, BioLegend). For alpha smooth muscle actin (fibrosis) analysis, additional cell aliquots were also fixed in 1% paraformaldehyde and permeabilized with 0.1% triton X-100 before being stained with Cy3-conjugated anti-mouse αSM actin antibody (1:100) (Sigma Aldrich, St. Louis, Mo.). Two ml of eBioscience Flow Cytometry Staining Buffer (cat. #00-4222, eBioscience) was then added, and the samples were centrifuged at 400-500 g for 5 min at 4° C. Supernatants were removed by aspiration, and this wash step was repeated two more times with staining buffer. Following the third wash, each sample was resuspended in 500 μl of Flow Cytometry Staining Buffer and run through a 40 μm filter (Cat. #22363547, Fisher Scientific) for eventual FACS analysis using a BD FACSCalibur (cat. #342975), BD Biosciences, San Jose, Calif., USA). For proper background and laser intensity settings, unstained, single antibody, and IgG (labeled with either Alexa-488 or Alexa-647, BioLegend) controls were also run. For primate cell staining, anti-human CD68 Alexa Fluor-647-conjugated antibody (Clone KP1, Cat. #sc-20060, Santa Cruz, Dallas, Tex.) was used in conjunction with the above BioLegend (anti-mouse/human) CD11b-AF488 antibody."}, "[1]": {"assay": "In vitro drug release from alginate capsules loaded with crystalline or amorphous formulations", "assay_type": "physicochemical", "details": "accelerated release conditions (+ SDS)", "description": "Release study was carried out in 3 different media, a normal saline-Isopropyl alcohol (10%) mixture, a phosphate buffer (pH 7.4), or for accelerated condition with phosphate buffered saline (pH 7.4) either with 0.1% w/v or 03% w/v SDS. Release study at NS+10% IPA was carried out in 2 ml medium at 37° C. Sampling was carried out by replacement of 1.5 ml of release medium by total replacement of release medium with fresh medium. […] For release in accelerated condition (PBS+SDS), the same time points were followed while 20 μl of drug loaded capsules were incubated in 2 ml release medium to achieve sink conditions. Drug concentration in samples was measured by reverse phase HPLC on C-18 column with a mobile phase or using UV calibrated system. An isocratic mode was set at a flow rate of 0.5-2 ml/min and a different wave-length of nm and 20-50 μl of samples was injected into an HPLC system (Waters, LC-Module-I) or UV analyzed. Calibration curves were prepared in concentration range of 0.05-10 μg/ml. Using prepared calibration curves, drugs concentration in different release samples were calculated."}}}
{"smiles": "COc1ccc(COc2ccc(Cc3cnc(N)nc3N)cc2OC)cc1", "note": "[GW2580, 5-[[3-Methoxy-4-[(4-methoxyphenyl)methoxy]phenyl]methyl]-2,4-pyrimidinediamine]", "values": [{"measurement": "foreign body response (plaque on retrieved PDMS discs)", "setting": "C57BL/6 mice; 1, 5 and 10% w/w crystals, 2 and 4 weeks, 3 months", "value": "reduced in a dose-dependent fashion"}, {"measurement": "remaining drug levels (% loading, HPLC), SC versus IP", "setting": "C57BL/6 mice; 2 weeks, 4 weeks, 3 months", "value": "release was slower in the SC space"}, {"measurement": "responding macrophages dissociated from discs (FACS)", "setting": "C57BL/6 mice; all time points, IP and SC", "value": "significantly reduced cell numbers"}, {"measurement": "immune cell infiltration and fibrosis (H&E and Masson's Trichrome)", "setting": "C57BL/6 mice; excised SC and IP tissues, versus blank discs", "value": "significantly reduced immune cell infiltration and fibrosis"}, {"measurement": "drug retention, PDMS versus alginate", "setting": "C57BL/6 mice; same incubation times", "value": "drug retention was much higher in polymer PDMS"}, {"measurement": "drug release profile", "setting": "[1]; amorphous form in 2000 μm alginate capsules", "value": "Higher drug release"}, {"measurement": "drug release profile", "setting": "[1]; pure crystalline formulations in 2000 μm alginate capsules", "value": "released the drug more slowly initially, but continued releasing drugs for a much longer period of time"}]}
